This note sets out measurements from US20230390283A1, “USES OF CHK2 INHIBITORS” (The University of Birmingham, priority 2020, published 2023).

Entries after “also recorded” stand apart in the source; their conditions may differ.

For data set [1], the system named is primary adult rat dorsal root ganglion neuron (DRGN) cultures. The experiment in a line: DRGN survival and neurite outgrowth in culture. The note with it: for optimal concentration that promoted DRGN/RGC survival and neurite outgrowth: preliminary experiments, DRGN/RGC cultures. It counts as cell-based. The procedure: (§1) Rat DRGN and retinal cultures. […] Cells were cultured for 4 days in a humidified chamber at 37° C. and 5% CO2 before being subjected to quantitative RT-PCR or immunocytochemistry, as described below.
Immunocytochemistry. […] Slides were then viewed with an epi-fluorescent Axioplan 2 microscope, equipped with an AxioCam HRc and running Axiovision Software (all from Carl Zeiss, Hertfordshire, UK).

The subject of data set [2] is T8 dorsal column (DC) crush model of spinal cord injury. The experiment in a line: DC crush injury model: electrophysiology (compound action potentials). The class given is in vivo, rat. The note with it: 6 weeks after DC injury. The procedure: (§2) DC crush injury model. Rats were injected subcutaneously with 0.05 ml Buprenorphine to provide analgesia prior to surgery and anaesthetised using 5% of Isoflurane in 1.8 ml/l of O2 with body temperature and heart rate monitored throughout surgery.
(§3) Chk2 inhibition studies in the DC crush injury model. […] Chk1i (LY2603618) was used at equimolar concentrations for each experiment. Rats were killed in a rising concentration of CO2 at either 28 d for immunohistochemistry and western blot analyses or 6 weeks for electrophysiology and functional tests.
Electrophysiology. […] Briefly, with the experimenter masked to the treatment conditions, silver wire electrodes applied single-current pulses (0.05 ms) through a stimulus isolation unit in increments (0.2, 0.3, 0.6, 0.8, and 1.2 mA) at L1-L2 and compound action potentials (CAP) were recorded at C4-C5 along the surface of the midline spinal cord. Spike 2 software was then used to calculate CAP amplitudes between the negative deflection after the stimulus artifact and the next peak of the wave. CAP area was calculated by rectifying the negative CAP component (full-wave rectification) and measuring its area. At the different stimulation intensities. […] Representative CAP traces are processed output data from Spike 2 software.

In a further data set the test system is RGC function. The note with it: 24 days after ONC.
Another data set relates to dorsal column (DC) axons. Put plainly: DC crush injury model: GAP43+ DC axon regeneration. It counts as in vivo, rat.
For data set [3], the system named is RGC. The experiment in a line: Optic neuritis model: RGC survival (Fluorgold backfilled wholemounts). It counts as in vivo, mice. Conditions: 21 days after induction. The procedure: (§4) Induction of optic neuritis. […] Animals were intraperitoneally injected with 150 ng Bordetella pertussis toxin on day 0 and 2. Animals were monitored daily and assessed for the development of EAE. At the end of the experiment, animals were then killed by CO2 overdose.
(§5) Assessment of RGC survival.

In data set [4] the test system is retinal nerve fibre layer. Put plainly: Optic neuritis model: RNFL thickness by OCT. Conditions: day 21. The class given is in vivo, mice. The procedure:
as §4
Measurement of RNFL thinning using optical coherence tomography (OCT). […] Examinations were recorded in both right (oculus dextrus, OD) and left eyes (oculus sinister, OS) of each animal at day 0 and day 21 after immunisation. […] A RNFL single exam using the automatic real time (ART) mode (allows averaging of 100 recordings) was produced for each mouse eye, which automatically measured RNFL thickness (μm) in a 30° circle surrounding the optic nerve head.

For data set [5], the system named is RGC. The experiment in a line: Glaucoma model: RGC survival in retinal wholemounts. It counts as in vivo, rat. Conditions: 30 days after induction of glaucoma. As to the method:
Induction of glaucoma. […] At day zero, a self-sealing incision was made though the cornea into the anterior chamber enabling twice weekly intracameral injections of 3.5 μl of TGFβ2 (5 ng/μl) using glass micropipettes for 30 days. Vehicle, comprising saline, was injected in control groups. Intraocular pressure was measured using an iCare Tonolab rebound tonometer (Icare, Helsinki, Finland).
as §5

The subject of data set [6] is T8 dorsal column (DC) crush model of spinal cord injury. The experiment in a line: DC crush injury model: horizontal ladder test (locomotor function). It counts as in vivo, rat. The note with it: followed over 6 weeks. The procedure: as §2, §3
(§6) Functional tests. […] Experiments were performed by 2 observers (treatment conditions were masked) in the same order, the same time of day and each test performed for 3 individual trials.
Horizontal ladder test: This tests the animals locomotor function and is performed on a 0.9-meter-long horizontal ladder with a diameter of 15.5 cm and randomly adjusted rungs with variable gaps of 3.5-5.0 cm. The total number of steps taken to cross the ladder and the left and right rear paw slips being were recorded and the mean error rate was then calculated by dividing the number of slips by the total number of steps taken.

Data set [7] shares this test system. The experiment in a line: DC crush injury model: tape sensing and removal test (sensory function). The class given is in vivo, rat. Conditions: followed over 6 weeks. The procedure: as §2, §3, §6
The next data set deals with pChk2^T68 and pChk2^T383. The note with it: western blot and densitometry. The procedure: as §1
Protein extraction and western blot analysis. […] For densitometry, western blots were scanned into Adobe Photoshop (Adobe Systems Inc, San Jose, Calif., USA) and analysed using the built-in-macros for gel analysis in ImageJ (NIH, USA, http://imagej.nih.clov/ij).
In general terms: In western blotting, separated proteins are transferred to a membrane and probed.

As to `NC(=O)c1ccc2[nH]c(-c3ccc(Oc4ccc(Cl)cc4)cc3)nc2c1` [BML-277], the “optimal concentration that promoted DRGN/RGC survival and neurite outgrowth” value in data set [1] came out at 5 µM.
With `COc1cc2nc(-c3cc(F)ccc3O)nc(N[C@@H]3CNC[C@H]3C(C)(C)O)c2cc1OC` [CCT241533], in [1], the “optimal concentration that promoted DRGN/RGC survival and neurite outgrowth” value stood at 10 µM.
As for `Cc1cnc(NC(=O)Nc2cc(Br)c(C)cc2OC[C@@H]2CNCCO2)cn1` [LY2603618], in data set [2], the “CAP area at different stimulation intensities” value is “significantly attenuated”. Moreover, the “negative CAP amplitudes” value in [2] (different stimulation intensities) is “significantly attenuated”. For the same compound, in the data set on RGC function, the “ERG traces and pSTR amplitude” value is given as “no effect”. Moreover, the “DC axon regeneration beyond the lesion site” value with dorsal column (DC) axons (listed as Chk1 i) is “few GAP43^+ axons”; in the data set with dorsal column (DC) axons (listed as Chk1i), “no axon regeneration beyond the lesion site”. For the same compound, the “RGC survival in optic neuritis” value in the data set on RGC [3] was “no effect”. Further, in data set [4], the “RNFL thickness in optic neuritis” value is reported as “no effect”. Also, the “RGC survival in glaucoma” value in the data set on RGC [5] was “no effect”. Also, the “effect on DRGN/RGC survival” value in data set [1] (1-50 μM) is on record as “no effect”. Also, the “effect on DRGN survival, % DRGN with neurites and neurite length” value in data set [1] (4 days culture) was “no effect”. Moreover, the figures for the “ladder crossing test performance” value in data set [6] (listed as Chk1 i) and in [6] (listed as Chk1i) were “a deficit remaining” and “a significant deficit remains; also recorded: a deficit remaining”, respectively. For the same compound, the “tape sensing/removal test performance” value in data set [7] (listed as Chk1 i) and in data set [7] (listed as Chk1i) was “a significant deficit remained” in each case.
With `COc1cccc(OCCCN)c1-c1cc(Nc2cnc(C#N)cn2)n[nH]1` [Prexasertib], the “optimal concentration that promoted DRGN/RGC survival and neurite outgrowth” value in data set [1] is 10 µM.
As to CCT241533, the “Chk2 phosphorylation (pChk2^T68, pChk2^T383) in DRGN cultures” value in the data set on pChk2^T68 and pChk2^T383 is listed as “suppresses”.
As for “FGF2: positive control for DRGN cultures, pre-optimised 10 ng/ml”, the “% DRGN with neurites” value in [1] (4 days culture) is on record as 42%. This compound also displayed a mean neurite length in data set [1] (4 days culture, controls 12 μm) of 180 μm.
